Reference: ChEMBL document CHEMBL5584233, “Amide bioisosteric replacement in the design and synthesis of quorum sensing modulators” (Eur J Med Chem, 2024)

Legend:
[1] = molecular target: T1, Transcriptional regulator MvfR (Pseudomonas aeruginosa PA14, UniProt A0A072ZLE6); assay: Antagonist activity at PqsR in wild-type Pseudomonas aeruginosa PAO1-L assessed as reduction in HHQ level at 0.1 uM by LCMS/MS analysis
T1 sequence (A0A072ZLE6 whole entry): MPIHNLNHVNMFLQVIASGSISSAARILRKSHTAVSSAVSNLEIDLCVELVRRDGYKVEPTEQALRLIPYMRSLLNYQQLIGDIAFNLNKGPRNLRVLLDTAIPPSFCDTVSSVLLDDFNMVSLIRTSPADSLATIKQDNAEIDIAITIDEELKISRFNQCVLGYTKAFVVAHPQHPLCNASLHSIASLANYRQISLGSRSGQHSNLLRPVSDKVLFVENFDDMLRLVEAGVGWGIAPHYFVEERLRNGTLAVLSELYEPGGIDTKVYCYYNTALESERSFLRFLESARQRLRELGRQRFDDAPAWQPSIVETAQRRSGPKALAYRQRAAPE

[2] = Inhibition of quorum sensing system in Vibrio fischeri; set-up: species or system Aliivibrio fischeri
[3] = Inhibition of quorum sensing system in Pseudomonas aeruginosa PAO1 transfected with lasB-GFP by measuring reduction in fluorescence intensity measured for 16 hrs by fluorescence assay
[4] = Inhibition of quorum sensing system in Chromobacterium violaceum CV026 assessed as reduction in violacein production
[5] = Inhibition of quorum sensing system in Pseudomonas aeruginosa PAO1
[6] = molecular target: T1, Transcriptional regulator MvfR; assay: Inhibition of PqsR-mediated quorum sensing system in Pseudomonas aeruginosa PAO1 assessed as inhibition of pyocyanin production incubated for 24 hrs by absorbance based assay
[7] = molecular target: T1, Transcriptional regulator MvfR; assay: Inhibition of PqsR-mediated quorum sensing system in Pseudomonas aeruginosa PAO1 assessed as inhibition of pyocyanin production at 20 uM incubated for 24 hrs by absorbance based assay
Pseudomonas aeruginosa = assay: Antibiofilm activity against Pseudomonas aeruginosa PAO1 assessed as inhibition of biofilm formation at 50 uM incubated for 24 hrs by crystal violet staining based absorbance assay relative to control; type: functional; set-up: scale not given: the % may be the effect or the level left
[8] = molecular target: T2, Transcriptional activator protein LasR (Pseudomonas aeruginosa (strain ATCC 15692 / PAO1 / 1C / PRS 101 / LMG12228), UniProt P25084); assay: Inhibition of LasR-mediated quorum sensing system in Pseudomonas aeruginosa PAO1 assessed as inhibition of pyocyanin production incubated for 24 hrs by absorbance based assay
T2 sequence (P25084 whole entry): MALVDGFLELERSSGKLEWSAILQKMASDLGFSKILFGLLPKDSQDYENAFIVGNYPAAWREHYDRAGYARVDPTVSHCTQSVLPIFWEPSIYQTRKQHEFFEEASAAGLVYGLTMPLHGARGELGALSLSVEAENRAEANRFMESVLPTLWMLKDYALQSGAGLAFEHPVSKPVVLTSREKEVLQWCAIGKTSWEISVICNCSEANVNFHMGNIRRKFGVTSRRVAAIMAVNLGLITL

[9] = molecular target: T1, Transcriptional regulator MvfR; assay: Antagonist activity at PqsR in Pseudomonas aeruginosa IPCD48 clinical isolate assessed as reduction in PQS level at 0.1 uM by LCMS/MS analysis
[10] = molecular target: T3, Transcriptional activator protein TraR (Agrobacterium tumefaciens, UniProt P33905); assay: Antagonist activity at Agrobacterium tumefaciens TraR receptor
T3 sequence (P33905 whole entry): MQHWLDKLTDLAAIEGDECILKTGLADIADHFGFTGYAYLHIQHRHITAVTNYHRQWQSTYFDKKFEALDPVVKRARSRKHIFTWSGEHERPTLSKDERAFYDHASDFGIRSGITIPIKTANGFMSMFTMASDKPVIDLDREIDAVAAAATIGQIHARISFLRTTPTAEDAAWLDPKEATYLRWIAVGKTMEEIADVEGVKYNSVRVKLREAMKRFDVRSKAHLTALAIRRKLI

[11] = molecular target: T4, Transcriptional regulator MvfR (Pseudomonas aeruginosa PA14) (UniProt A0A072ZLE6); assay: Inhibition of PqsR-mediated quorum sensing system in Pseudomonas aeruginosa PAO1 assessed as inhibition of pyocyanin production at 100 uM relative to control
T4 sequence (whole entry): T1 sequence (A0A072ZLE6 whole entry)

[12] = molecular target: T1, Transcriptional regulator MvfR; assay: Antagonist activity at PqsR in wild-type Pseudomonas aeruginosa PAO1 assessed as reduction in AQ level
[13] = molecular target: T2, Transcriptional activator protein LasR; assay: Inhibition of LasR-mediated quorum sensing system in Pseudomonas aeruginosa PAO1 assessed as inhibition of elastase production

Work on `O=C(N[C@H]1CCOC1=O)SCc1ccc([N+](=O)[O-])cc1` yielded an IC50 [1] of 23 µM.
Compound `O=C1OCCC1NS(=O)(=O)CCc1ccccc1` (stereo not drawn) has an IC50 [2] of 3 µM.
In the case of `O=C(NCCc1ccc(Br)cc1)c1ccccc1[N+](=O)[O-]`, the IC50 [3] is reported as 4.8 µM.
Compound `O=C(Nc1ccc(S(=O)(=O)N[C@H]2CCOC2=O)cc1)c1ccccc1F` has an IC50 [4] of 1.6 µM.
`O=C(NCc1cccc(I)c1)c1ccccc1[N+](=O)[O-]` gave an IC50 [3] of 6.5 µM.
For `CCCCCCCCCCS(=O)(=O)N[C@H]1CCOC1=O`, the IC50 [5] was 1.1 µM.
For `CCCCCNC(=O)NC1CCOC1=O` (stereo not drawn), the IC50 [6] was 1.1 µM.
Work on `FC(F)(F)c1cc(NCc2cn(-c3ccc(Oc4ccccc4)cc3)nn2)ccn1` yielded an IC50 [7] of 0.011 µM.
With `O=C(Nc1cc(=O)c2ccccc2o1)c1ccc(F)cc1` the Activity (Pseudomonas aeruginosa) was 65.3%.
Compound `Cc1cc(C)c(S(=O)(=O)NC[C@H]2O[C@@H](C)[C@@H](O)[C@@H](O)[C@@H]2O)c(C)c1` has an IC50 [8] of 3 µM.
`O=C(Nc1ccc([N+](=O)[O-])cc1)c1cc(=O)c2ccccc2o1` gave an Activity (Pseudomonas aeruginosa) of 58.7%.
With `CCCCCCc1cncn1CC(=O)OCC` the IC50 [7] was 87 µM.
Compound `CCOC(=O)CC(=O)c1ccc(F)cc1` has an IC50 [9] of 23 µM.
Work on `O=C(Nc1ccc(F)cc1)c1cc(=O)c2ccccc2o1` yielded an Activity (Pseudomonas aeruginosa) of 73.3%.
With `CCCCCCc1cncn1C1CCOC1=O` (stereo not drawn) the IC50 [7] was 110 µM.
Compound `O=C(Nc1cc(=O)c2ccccc2o1)c1ccc([N+](=O)[O-])cc1[N+](=O)[O-]` has an Activity (Pseudomonas aeruginosa) of 90%.
Work on `C[C@@H]1O[C@H](CNC(=O)/C=C/c2ccccc2)[C@@H](O)[C@H](O)[C@@H]1O` yielded an IC50 [8] of 88 µM.
Work on `CCCCCCS(=O)(=O)N[C@H]1CCOC1=O` yielded an IC50 [10] of 0.8 µM.
For `O=C(CN1CCOCC1)Nc1cccc([N+](=O)[O-])c1`, the IC50 [9] was > 483 µM.
Compound `CCCCCCNC(=O)NC1CCOC1=O` (stereo not drawn) has an IC50 [6] of 1 µM.
Compound `COc1ccc(NC(=O)Cn2cc(CSc3nc4ccccc4c(=O)n3C3CC3)nn2)cc1` has an inhibition [11] of 74%.
Compound `CCCCS(=O)(=O)N[C@H]1CCOC1=O` has an IC50 [10] of 0.6 µM.
Work on `Fc1ccc(-n2cc(CNc3ccnc(C(F)(F)F)c3)nn2)cc1` yielded an IC50 [7] of 0.196 µM.
Work on `CCCCCS(=O)(=O)NC1CCOC1=O` (stereo not drawn) yielded an IC50 [2] of 2 µM.
In the case of `Nc1cc(NCC(=O)Nc2ccc(F)cc2)cc(C(F)(F)F)n1`, the IC50 [7] is reported as 0.48 µM.
With `O=C(Nc1ccc(S(=O)(=O)N[C@H]2CCOC2=O)cc1)c1sccc1Cl` the IC50 [4] was 6.2 µM.
Work on `O=C(NCc1cc(F)cc(F)c1)c1ccccc1[N+](=O)[O-]` yielded an IC50 [3] of 6.6 µM.
With `O=C(CN1CCOCC1)Oc1cccc([N+](=O)[O-])c1` the IC50 [9] was 22 µM.
`CCCCCCOC(=O)N[C@H]1CCOC1=O` showed an IC50 [1] of 73 µM.
Compound `CCCCCCCCCCCCn1nnc(CC(=O)O)n1` has an IC50 [12] of 0.03 µM.
For `CCOC(=O)CC(=O)c1ccccc1`, the IC50 [9] was 76 µM.
With `CCCCSC(=O)N[C@H]1CCOC1=O` the IC50 [1] was 45 µM.
With `CCCCNC(=O)CSc1nc2ccccc2c(=O)n1C1CC1` the inhibition [11] was 62%.
Work on `O=[N+]([O-])c1ccccc1S(=O)(=O)Nc1ccc(S(=O)(=O)Nc2nccs2)cc1` yielded an IC50 [13] of 60 µM.
`O=C(Oc1c(Br)cc(Br)cc1CNC(=O)c1ccccc1[N+](=O)[O-])c1ccccc1Cl` showed an IC50 [12] of 0.038 µM.
With `O=C(N[C@H]1CCOC1=O)OCc1ccc([N+](=O)[O-])cc1` the IC50 [1] was 22 µM.
Work on `CCCCCCCCCS(=O)(=O)N[C@H]1CCOC1=O` yielded an IC50 [5] of 1 µM.
In the case of `CO[C@H]1O[C@H](CNS(=O)(=O)c2c(C)cc(C)cc2C)[C@@H](O)[C@H](O)[C@@H]1O`, the IC50 [8] is reported as 4 µM.
